# System: ECHOR
# Assay: In-water applied weed control, transplanted paddy rice, greenhouse (Example II)
# Assay type: in vivo, Echinochloa oryzoides (Ard.) Fritsch
# Method: Evaluation of in-Water Applied Herbicidal Mixtures for Weed Control in Transplanted Paddy Rice
# Weed seeds or nutlets of the desired test plant species were planted in puddled soil (mud) prepared by mixing a shredded, non-sterilized mineral soil (50.5 percent silt, 25.5 percent clay, and 24 percent sand, with a pH of about 7.6 and an organic matter content of about 2.9 percent) and water at a 1:1 volumetric ratio. The prepared mud was dispensed in 365 mL aliquots into 16-ounce (oz.) non-perforated plastic pots with a surface area of 86.59 square centimeters (cm^2) leaving a headspace of 3 centimeters (cm) in each pot. Mud was allowed to dry overnight prior to planting or transplanting. Rice seeds were planted in Sun Gro MetroMix® 306 planting mixture, which typically has a pH of 6.0 to 6.8 and an organic matter content of about 30 percent, in plastic plug trays. Seedlings at the second or third leaf stage of growth were transplanted into 840 mL of mud contained in 32-oz. non-perforated plastic pots with a surface area of 86.59 cm^2 4 days prior to herbicide application. The paddy was created by filling the headspace of the pots with 2.5 to 3 cm of water. When required to ensure good germination and healthy plants, a fungicide treatment and/or other chemical or physical treatment was applied. The plants were grown for 4-22 days in a greenhouse with an approximate 14 h photoperiod which was maintained at about 29′C during the day and 26° C. during the night. Nutrients were added as Osmocote® (19:6:12, N:P:K+ minor nutrients) at 2 g per 16-oz. pot and 4 g per 32-oz. pot. Water was added on a regular basis to maintain the paddy flood, and supplemental lighting was provided with overhead metal halide 1000-Watt lamps as necessary. The plants were employed for testing when they reached the first through fourth true leaf stage.
# Treatments consisted of the acid or esters of 4-amino-3-chloro-5-fluoro-6-(4-chloro-2-fluoro-3-methoxy-phenyl)pyridine-2-carboxylic acid (compound A) each formulated as an SC (suspension concentrate) and various herbicidal components alone and in combination. Forms of compound A were applied on an acid equivalent basis.
# Other herbicidal components were applied on an active ingredient basis and included 4-hydroxyphenyl pyruvate dioxygenase (HPPD)-inhibiting herbicides mesotrione formulated as Callisto®, sulcotrione formulated as Mikado®, pyrazolynate formulated as Sunbird® 10% GR, and benzobicyclon formulated as Benzobicyclon 3.5% or technical material.
# Treatment requirements for each compound or herbicidal component were calculated based upon the rates being tested, the concentration of active ingredient or acid equivalent in the formulation, an application volume of 2 mL per component per pot, and an application area of 86.59 cm^2 per pot.
# For formulated compounds, a measured amount was placed in an individual 100 or 200 mL glass vial and was dissolved in a volume of 1.25% (v/v) Agri-Dex® crop oil concentrate to obtain application solutions.
# For technical grade compounds, a weighed amount was placed in an individual 100 to 200 mL glass vial and was dissolved in a volume of acetone to obtain concentrated stock solutions. […] The concentrated stock solutions obtained were diluted with an equivalent volume of an aqueous mixture containing 2.5% (v/v) crop oil concentrate so that the final application solutions contained 1.25% (v/v) crop oil concentrate.
# Applications were made by injecting with a pipetter appropriate amounts of the application solutions, individually and sequentially, into the aqueous layer of the paddy. Control plants were treated in the same manner with the solvent blank. Applications were made so that all treated plant material received the same concentrations of acetone and crop oil concentrate.
# The treated plants and control plants were placed in a greenhouse as described above and water was added as needed to maintain a paddy flood. […]
Compound,Visual Weed Control (%) - 20 DAA ECHOR Obs (4.38 gae/ha),Visual Weed Control (%) - 21 DAA ECHOR Obs (4.38 gae/ha),Visual Weed Control (%) - 20 DAA ECHOR Obs (8.75 gae/ha),Visual Weed Control (%) - 21 DAA ECHOR Obs (8.75 gae/ha),Visual Weed Control (%) - 22 DAA ECHOR Obs (8.75 gae/ha),Visual Weed Control (%) - 20 DAA ECHOR Obs (17.5 gae/ha),Visual Weed Control (%) - 21 DAA ECHOR Obs (17.5 gae/ha),Visual Weed Control (%) - 22 DAA ECHOR Obs (17.5 gae/ha),Visual Weed Control (%) - 21 DAA ECHOR Obs (96 gae/ha),Visual Weed Control (%) - 22 DAA ECHOR Obs (21.2 gae/ha),Visual Weed Control (%) - 20 DAA ECHOR Obs (42.4 gae/ha),Visual Weed Control (%) - 22 DAA ECHOR Obs (42.4 gae/ha),Visual Weed Control (%) - 20 DAA ECHOR Obs (84.8 gae/ha)
"COc1c(Cl)ccc(-c2nc(C(=O)OCc3ccccc3)c(Cl)c(N)c2F)c1F [Compound A Benzyl Ester, benzyl ester of 4-amino-3-chloro-5-fluoro-6-(4-chloro-2-fluoro-3-methoxy-phenyl)pyridine-2-carboxylic acid]",10%,25%,20%,25%,40%,30%,60%,95%,80%,–,–,–,–
"COc1c(Cl)ccc(-c2nc(C(=O)O)c(Cl)c(N)c2F)c1F [Compound A Acid, 4-amino-3-chloro-6-(4-chloro-2-fluoro-3-methoxyphenyl)-5-fluoropyridine-2-carboxylic acid]",–,–,–,–,–,–,–,–,–,20%,18%,40%,33%
